According to US20040087539A1, “Method of treating conditions related to platelet activity” (priority 2003, published 2004):
Entries after “also recorded” stand apart in the source; their conditions may differ.

Key:
platelets [1] = experiment: Ristocetin-induced vWF-dependent platelet aggregation in platelet-rich plasma; format: cell-based, human; conditions: PRP; agent added with subthreshold ristocetin (1 mg/mm [sic]) (or botrocetin); FIGS. 3B, 6A
Protocol: (§1) Fresh blood from healthy volunteers was anticoagulated with 1/7 volume of ACD (2.5% trisodium citrate, 2% dextrose and 1.5% citric acid). Platelets were washed with CGS buffer (sodium chloride 0.12 M, trisodium citrate 0.0129 M and d-glucose 0.03 M, pH 6.5), resuspended in modified Tyrode's solution and allowed to incubate at 22° C. for 1 hours as previously described. In experiments using platelet-rich plasma (PRP), 1/10 volume of 3.8% trisodium citrate was used as anticoagulant. Platelet aggregation was measured using a turbidometric platelet aggregometer (Chrono-Log) at 37° C. vWF-dependent platelet aggregation was induced by addition of ristocetin or botrocetin to PRP. To differentiate CPIb-IX-mediated platelet agglutination from the second wave of integrin-dependent platelet aggregation, final concentrations of ristocetin were adjusted in each experiment to achieve a two-wave curve of aggregation. Washed platelets were used in platelet aggregation induced by a-thrombin (Enzyme Research Laboratories). To examine the effects of PKG, 100 μM of membrane permeable cGMP analogs, 8-bromo-cGMP or 8-dibutyl-cGMP (Calbiochem), or 1 μM sildenafil citrate (Pfizer) and added simultaneously with subthreshold concentrations of agonists. PKG inhibitors KT5823 (2 pM) and Rp-8PCPT-cGMP (0.2 mM) were preincubated with platelets at 37° C. for 5 minutes before addition of agonists.
In FIG. 3A, platelet rich-plasma (PRP) was preincubated at 37° C. for 5 mm with PKG inhibitors KT5823 (2 pM) or Rp-8pCPT-cGMP (0.2 μM). PRP was also incubated with DMSO (vehicle for KT5823), a PKA inhibitor, KT5720 (2 pM), or buffer (Control). The vWF modulator, ristocetin, was then added to induce vWF-GPIb-IX interaction. […] In FIG. 3B, a subthreshold concentration of ristocetin was added to PRP immediately followed by addition of 8-bromo-cGMP or buffer (Control). PRP also was preincubated with integrin inhibitor RGDS before adding ristocetin and 8-bromo-cGMP. In FIG. 3C, platelets were preincubated with or without PKG inhibitor KT5823, then allowed to spread on vWF-coated glass chamber slides. Platelets were stained with an anti-GPIb antibody, and fluorescein-labeled secondary antibody. The slides were imaged under a confocal microscope (magnification =630×).
(§2) In FIG. 6A, increasing concentrations of sildenafil or control 0.15 M NaCl solution were added to platelet-rich plasma followed by a subthreshold concentration of ristocetin. Platelet aggregation was recorded using a platelet aggregometer. In FIG. 6B, sildenafil or control buffer was added to washed platelets followed by addition of subthreshold doses of thrombin to induce platelet aggregation. It was noted that platelet aggregation occurs in the presence of sildenafil. The figure includes the representative results of at least three experiments.
(§3) In FIG. 7A, PRP was preincubated with 0.1 mM 8-bromo-cGMP for increasing lengths of time at 37° C. as indicated. The vWF modulator, ristocetin (1.25 mg/ml), then was added to induce platelet aggregation in a turbidometric platelet aggregometer. In FIG. 7B, PRP was preincubated with a high concentration of 8-bromo-cGMP (1 mM) for 5 minutes. Ristocetin then was added to induce platelet aggregation. In FIGS. 7C and 7D, washed platelets in modified Tyrode's solution were preincubated with 1 mM 8-bromo-cGMP (C), or various concentrations of 8-pCPT-cGMP (D) at 37° C. for 5 minutes. Thrombin (0.05 u/ml) then was added to induce platelet aggregation.

platelets [2] = experiment: Platelet aggregation/activation in vitro with sildenafil by itself; format: cell-based, human
platelets [3] = conditions: agonists ADP, collagen, A23 187, U46619, platelet activating factor; Ref. 38; cited from earlier work
[4] = system: CHO cells expressing human platelet receptors; experiment: Cell adhesion to immobilized vWF under flow; format: cell-based, Chinese Hamster; conditions: for stable adhesion of vector-transfected 123 cells to vWF under flow / stable adhesion of PKG-expressing 123 cells (123PKG) to vWF under flow: FIG. 2C, sildenafil 5 μM; for stable adhesion of PKG-expressing 123 cells (123PKG) to vWF under flow: RGDS 4 mM, 8-bromo-cGMP not shown
Protocol: CHO cells expressing human platelet receptors were resuspended in modified Tyrode's buffer, pH 7.4, containing 1 mg/mi of bovine serum albumin (BSA) (see Ref. 46), and final cell count was 5×10^5/ml. […] Purified human vWF (10 μg/ml in 0.1 M NaHCO3, pH 8.3) was added to glass microcapillary tubes (inner diameter of 1.33 mm and a length of 7.2 cm), and incubated at 4° C. for 20 h. The vWF-coated microcapillary tubes then were incubated with 5% BSA. After washing, the cell suspension was aspirated through the tube by a syringe pump (Harvard Apparatus Inc.) at desired shear rates for 1.2 minutes and washed with modified Tyrode's buffer for additional 10 minutes at the same shear rates to remove transiently adherent cells. The experiments were continuously recorded on videotape using a video cassette recorder (model 9500, Sony). The number of stably adherent cell on immobilized vWF was counted on images obtained at 20 randomly selected positions in the vWF-coated tubes.
In FIGS. 2A and B, vWF-coated capillary tubes were perfused with equivalent numbers (5×10^5/ml) of CHO cells expressing recombinant GPLb-JX alone (1b9), integrin αIIbβ3 alone (2b3a), both GPIb-IX and integrin αIIbβ3 (123) or expressing GPJb-JX, integrin α^IIbβ3 and PKG Ia (123PKG) at a shear rates of 800 s^−1 (A) or 1500 s^−1 (B) for 1.2 minutes, and then perfused with the modified Tyrodes buffer for 10 minutes at the same shear rates to wash out transient adherent cells. The expenments were recorded in real time. Cells stably adherent to vWF-coated capillary tubes at 20 randomly selected locations were counted.
In FIG. 2C, vector-transfected 123 cells (123) or 123PKG cells also was perfused into vWF-coated glass capillary tubes as described in FIG. 2A in the absence or presence (+RGDS) of an integrin inhibitor RGDS peptide (4 mM) and in the absence (Control) or presence of cGMP-enhancing drug, sildenafil (5 μM). […] The experiments were repeated at least three times.

[5] = clinical reports, Refs. 39-42; cited from earlier work
platelets [6] = experiment: Low-dose α-thrombin-induced aggregation of washed platelets; format: cell-based, human; conditions: washed platelets; thrombin 0.02 units/ml; FIGS. 5B, 6B
Protocol: as §1
In FIG. 5A, washed platelets were preincubated with 40 pg/mi anti-GPIba monoclonal antibody SZ2, integrin inhibitor RGDS, or inhibitors of PKG, KT5823 (2 μM) or Rp-8pCPT-cGMP (0.2 mM) (Calbiochem), for 5 min. Platelets also were preincubated with DMSO (vehicle for KT5823), KT5720 or buffer (Control) as controls. α-Thrombin (0.05 units/mi) then was added to induce platelet aggregation. Nonspecific JgG and RGES peptides also were examined as additional controls, but had no effect (not shown). In FIG. 5B, a subthreshold dose of thrombin was added to platelets immediately followed by addition of PKG activator 8-bromo-cGMP or buffer (Control). Shown in the figure are the representative results of at least three experiments.
as §2, §3

[7] = identical flow conditions, not shown

CCCc1nn(C)c2c(=O)[nH]c(-c3cc(S(=O)(=O)N4CCN(C)CC4)ccc3OCC)nc12 [sildenafil]
platelet aggregation together with a subthreshold concentration of ristocetin (platelets [1]): induces platelet aggregation | platelet aggregation in vitro (platelets [2]; sildenafil, not shown): did not inhibit | platelet activation by sildenafil by itself (platelets [2]; without platelet agonist): not sufficient to cause platelet activation | platelet activation in vitro, sildenafil alone (platelets [3]): did not inhibit; also recorded: does not inhibit | stable adhesion of vector-transfected 123 cells to vWF under flow [4]: enhancing effects | stable adhesion of PKG-expressing 123 cells (123PKG) to vWF under flow [4]: enhanced | stable adhesion of PKG-expressing 123 cells (123PKG) to vWF under flow ([4]; listed as Sildenafil): significantly increased | stable adhesion of vector-transfected 123 cells to vWF under flow ([4]; listed as Sildenafil): significantly increased | stable adhesion of 1b9 cells (GPIb-IX alone) under flow [4, 7]: no effect | stable adhesion of 2b3a cells (integrin αIIbβ3 alone) under flow [4, 7]: no effect | thrombotic events (myocardial infarction and cerebral thrombosis) in some patients [5]: associated with severe thrombotic events | platelet aggregation together with a subthreshold concentration of thrombin (platelets [6]): induces platelet aggregation
